In patent publication US20220409590A1, “CHEMOTHERAPY FOR GLIOMA THROUGH NEURONAL CONVERSION” (The Penn State Research Foundation, priority 2019, published 2022):

Test system: U251 cells
Experiment: Reprogramming of U251 cells; doublecortin immunostaining
Format: cell-based, human
Procedure: U251 cells were maintained in minimal essential media (MEM) supplemented with 2 mM glutamine, 1% non-essential amino acids, 1 mM sodium pyruvate, and 10% fetal bovine serum. Fifty thousand cells were seeded on to coverslips into 24-well plates. After 4 days in MEM, the cells were treated with the compound cocktail or dimethyl sulfoxide for another 4 days in Ham's F-12 (F-12) media supplemented with N2, B27 and insulin. The five-compound cocktail, referred to as described above as SLCDS, contained 5 μM SB431542, 0.25 μM LDN193189, 5 μM CHIR99021, 5 μM DAPT, and 40 μM SKL2001. After SLCDS treatment, F-12 media was changed every 4 days for 12 days. Cells were then crosslinked with 4% paraformaldehyde for 12 minutes and washed with Tris buffered saline (TBS). After three 5-minute washes, cells were blocked with 2.5% bovine serum albumin in Tris-buffered saline (TBS) with 0.1% Triton X-100 (TBSTx) for 1 hour. Primary antibody (goat Doublecortin, 1:500 dilution, sc-8066, Santa Cruz) were incubated with fixed cells overnight at 4° C. After three 5-minute washes, the secondary antibody (anti-goat Cy5, 1:1000) was incubated with fixed cells overnight at 4° C. After three 5-minute washes, the cover slip was mounted using mounting media. The fluorescent signal was detected using an ECHO Revolve microscope.

**Q.** For `O=C(NCCCn1ccnc1)c1cc(-c2ccco2)on1` [SKL2001], which “dose response of doublecortin expression” value (SKL2001 in combination with SB431542, LDN193189, CHIR99021 and DAPT in U251 cells, FIG. 2) is on record?
**A.** The value was “dose-response relationship is established”.

**Q.** What about the “conversion of U251 glioblastoma cells to neuronal cells” value (as evidenced by doublecortin expression) of the same molecule?
**A.** Its value is “efficient conversion”.
